# Values quoted from earlier work in US6747151B2, “Azo compounds for type I phototherapy” (Mallinckrodt, Inc., priority 2001, dated 2004).
# What was measured:
# tumors = conditions: after administration
# melanoma cells = conditions: after administration
Compound,uptake of porphyrins in tumors compared to normal tissues (tumors),levels of melanin in melanoma cells compared to normal cells (melanoma cells)
NCC(=O)CCC(=O)O [delta-aminolevulinic acid],two-fold,
dihydroxyindole-2-carboxylic acid,,substantially enhanced
